One compound from patent US20120046261A1, “COMPOSITIONS AND METHODS FOR DIAGNOSING AND PREVENTING SPONTANEOUS PRETERM BIRTH” (UNIVERSITY OF UTAH RESEARCH FOUNDATION, priority 2009, published 2012) can be followed below.

This assay relates to women with prior spontaneous preterm birth. In words: Multicenter, prospective, double-blind study of 17P vs. placebo for prevention of recurrent SPTB, secondary analysis by hPR genotype. The assay is classed as in vivo, human. As for the experimental part:
The goal of this study was to assess if women with single nucleotide polymorphisms (SNPs) in the human progesterone receptor (hPR) are more or less likely to respond to 17P for the prevention of recurrent SPTB. This study involved secondary analysis of 463 women enrolled in a multicenter, prospective, double-blind study of 17P vs. placebo for the prevention of recurrent SPTB.
Of 463 patients randomized in the original study, 459 were analyzed. Two thirds of women were randomized to 17P and one third were randomized to placebo. Of those patients who received 17P, 111, or 36%, delivered preterm less than 37 weeks, and 195, or 64%, delivered at term. Among those patients who received placebo, the preterm birth rate was higher, as 55% of women delivered preterm. During summer 2008, DNA was extracted from stored saliva samples. […]
20 SNPs in the hPR gene were selected to encompass the large progesterone receptor haplotype block. The 389 individuals with DNA available were then genotyped using TaqMan chemistry with established primers. Allele and genotype frequencies were calculated and evaluated for evidence of genetic predisposition to 17P response. Women were stratified by self-reported race. Primary outcomes evaluated were preterm birth<37 and <32 weeks
Regression was used to assess for an interaction between genotype, treatment, and clinical outcomes. Models controlled for number of prior spontaneous preterm births, smoking, and pre-pregnancy body mass index.
Dominant and recessive models of inheritance were used in this study (see Table 2 above). The dominant model assumes that having at least one copy of the minor allele is sufficient for disease. Patients homozygous for the minor allele and heterozygous patients with one minor allele are grouped together; here “little a/little a” and “Big A/little a” are compared with those homozygous for the major allele, “Big A/Big A.” The recessive model assumes that two copies of the minor allele are needed for disease. Here, those patients who are homozygous for the minor allele “little a/little a” are compared against the others.
Outcomes were available on 459 of the original 463 patients enrolled in the study. The study population of 389 patients was representative of the original cohort (see Table 3 below). The majority of patients in the cohort were African-American. Two-thirds of patients in the cohort received 17P. Furthermore, a similar proportion of patients delivered preterm less than 37 weeks and very preterm, less than 32 weeks, in the cohort when compared to the original study. Additionally, 21.1% of patients smoked during pregnancy. All patients had at least one prior spontaneous preterm birth in order to qualify for the original study. 28% of patients had 2 or more prior spontaneous preterm deliveries. The average pre-pregnancy body mass index was 26.7 kilograms per meter squared.

Where [1] appears, read: all patients who received 17P, original study cohort (459 analyzed).

Entries after “also recorded” stand apart in the source; their conditions may differ.

Take `CCCCCC(=O)O[C@]1(C(C)=O)CC[C@H]2[C@@H]3CCC4=CC(=O)CC[C@]4(C)[C@H]3CC[C@@]21C` [17P, 17 alpha-hydroxyprogesterone caproate]: the “percentage of patients delivering preterm <37 weeks” value was 21% (African Americans, rs471767 AA genotype (homozygous major allele), receiving 17P, placebo nearly 60%); “under 40%” (African Americans, rs471767 at least one minor allele (G; AG and GG), receiving 17P). For the setting “African Americans, rs578029 at least one major allele (T), receiving 17P, placebo approximately 55%”, the “rate of prematurity (SPTB)” value stood at 25%. The “reduction in preterm birth rates with 17P” value (African Americans, rs578029 homozygous for the minor allele (A)) is “no reduction”. Moreover, the “patients who delivered at term” value under setting [1] is given as 64%. For the same compound, the “patients who delivered preterm less than 37 weeks” value under setting [1] came to 36%. Further, the “rate of preterm birth <32 weeks gestation” value (non-African American (Caucasian/Hispanic), rs666553 at least one minor allele (T), receiving 17P, placebo 26.7%) was determined as 3.4% and the “rate of preterm birth <32 weeks gestation” value (non-African American, rs503362 at least one minor allele (C), receiving 17P, placebo 17.4%) stood at 2.6%. Moreover, the “reduction in prematurity (<32 weeks) with 17P” value (non-African American (Caucasian/Hispanic), rs666553 homozygous for the major allele) is reported as “do not experience any reduction; also recorded: did not experience any reduction”. The “reduction in the rate of prematurity (<32 weeks) when receiving 17P” value (non-African American, rs503362 homozygous for the major allele (G)) is on record as “did not have a reduction”.
